Reference: publication PMC13376213, “Systematic discovery of motif-based interactions of the auxiliary domains of USP family deubiquitinases” (Nature Communications, 2026)
Read-outs that look alike come from different tables or passages of the source. Ends that are not written are not given here.

What was measured:
USP20 zf-UBP domain = molecular target: T1, USP20 zf-UBP domain (Homo sapiens, UniProt Q9Y2K6); assay: FP-monitored affinity measurements, USP20 zf-UBP; format: binding
T1 construct: USP20_UBP; Q9Y2K6; zf-UBP; 99; 6xHis-GST (N, cleaved yes); made in house; host or cells: Escherichia coli BL21-Gold (DE3)
Description: (§3) The measurements were performed at room temperature in a non-binding black half area 96-well plate (Corning) with a total volume of 50 μL per well. […] All measurements were performed in three technical replicates. […] The saturation curves were fitted to the quadratic equation, and the displacement curves were fitted to a sigmoidal dose-response equation as described previously[68].

USP33 zf-UBP domain = molecular target: T2, USP33 zf-UBP domain (Homo sapiens, UniProt Q8TEY7); assay: FP-monitored affinity measurements, USP33 zf-UBP; format: binding; details: read-out: KD, USP33 zf-UBP
T2 construct: USP33_UBP; Q8TEY7; zf-UBP; 36; 130; 6xHis-GST (N, cleaved yes); made in house; host or cells: Escherichia coli BL21-Gold (DE3)
T2 sequence (Q8TEY7 with tags, fused parts or gaps): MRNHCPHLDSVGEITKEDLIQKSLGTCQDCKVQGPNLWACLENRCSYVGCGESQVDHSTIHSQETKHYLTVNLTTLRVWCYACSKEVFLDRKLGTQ
Description: as §3

USP33 DUSP2 domain [1] = molecular target: T3, USP33 DUSP2 domain (Homo sapiens, UniProt Q8TEY7); assay: Peptide SPOT array, USP33 DUSP2; format: binding; details: average normalised to the highest intensity (CCDC88B = 100)
T3 construct: USP33_DUSP2; Q8TEY7; DUSP2; 806; 921; 6xHis-GST (N, cleaved yes); made in house; host or cells: Escherichia coli BL21-Gold (DE3)
T3 sequence (Q8TEY7 with tags, fused parts or gaps): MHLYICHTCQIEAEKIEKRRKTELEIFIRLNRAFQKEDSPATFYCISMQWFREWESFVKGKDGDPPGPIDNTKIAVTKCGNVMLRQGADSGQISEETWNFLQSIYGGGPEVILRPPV
Description: (§4) Peptides were synthesized on cellulose membranes with standard Fluoroenylmethylox-ycarbonyl (Fmoc) chemistry using a Multipep automated synthesizer at INTAVIS (Tübingen, Germany) or ordered from JPT (PepSpots). The membranes were activated with methanol for 5 min and washed three times for 5 min with TBST (50 mM Tris, 137 mM NaCl, 2.7 mM KCl, pH 8.0, 0.05% Tween-20). The membranes were incubated with blocking buffer (5% skim milk powder in TBST) for 2 h at room temperature while shaking. The membranes were incubated with the GST-tagged protein diluted at the desired concentration in blocking buffer and incubated overnight at 4 °C while shaking. The membrane was rinsed 3 times with TBST and incubated with HRP-conjugated anti-GST antibody (Cytiva, RPN1236; 1:3000 dilution) in blocking buffer for 1 h at 4 °C while shaking. […] The images were analyzed in Fiji (ImageJ2 version 2.9.0).

USP33 DUSP2 domain [2] = molecular target: T3, USP33 DUSP2 domain; assay: FP-monitored affinity measurements, USP33 DUSP2; format: binding
Description: (§1) Proteins were expressed in Escherichia coli (E.coli) BL21-Gold (DE3) bacteria. The cDNAs encoding N-terminal 6-histidine-glutathione S-transferase tagged (6xHis-GST), 6xHis-tagged or GST-tagged protein domains in pETM33, pETM11, pGEX6P1 expression vectors respectively, were obtained from Genescript or kindly provided by MRC-PPU (Suppl. Data 1) The bacteria were transformed with the plasmid and grew at 37 °C in 2YT (5 g/L NaCl, 16 g/L tryptone and 10 g/L yeast extract) supplemented with Kanamycin (30 μg/mL) until reaching an OD600 of 0.7. Protein expression was induced with 0.3 mM isopropyl β-D-1 thiogalactopyranoside (IPTG) for 18 h at 18 °C while shaking. For zinc-finger domains, 50 μM of ZnSO4 was added during expression. The bacterial cultures were pelleted for 15 minutes at 4000 x g at 4 °C and stored at −20 °C until purification. The pellets were resuspended in lysis buffer (1× phosphate-buffered saline (PBS), 0.5 % Triton-X, 5 mM MgCl2, 10 μg/mL lysozyme, cOmplete^TM EDTA-free protease inhibitor cocktail (Roche), 10 μg/mL DNAseI) and incubated for 1 h shaking at 4 °C. […] The supernatant was incubated with glutathione (GSH) Sepharose (Cytiva) or Ni2+ Sepharose (Cytiva) for 1 h at 4 °C while shaking. The beads with the bound protein were washed with 1x PBS and eluted with 10 mM reduced glutathione in 50 mM Tris pH 8.0. For fluorescence polarization experiments, the proteins were not eluted from the beads, and the 6xHis-GST tag was cleaved overnight on GSH Sepharose beads at 4 °C while shaking with PreScission Protease in cleavage buffer (50 mM Tris pH 7.5, 150 mM NaCl, 1 mM DTT). The sample containing the cleaved domain was separated from the tag and protease and buffer-exchanged to 50 mM sodium phosphate buffer pH 7.4 with 1 mM DTT using a PD-10 desalting column (Cytiva). The purity and size of the proteins were analyzed by SDS-PAGE electrophoresis.
(§2) The measurements were performed at room temperature in a non-binding black half area 96-well plate (Corning) with a total volume of 50 μL per well. Peptides were obtained from GeneCust (France) with >95% purity. FITC-labeled peptides (N-terminally FITC-labeled without spacer and C-terminally amidated) were dissolved in dimethyl sulfoxide (DMSO), and unlabeled peptides (N-terminally acetylated and C-terminally amidated) were dissolved in 50 mM phosphate buffer pH 7.4. Saturation measurements were performed using a serial dilution of the protein domains in phosphate buffer (25 μL) and the addition of 10 nM FITC-labeled peptide (in phosphate buffer supplemented with 2 mM DTT) (25 μL). […] All measurements were performed in three technical replicates. The data were analyzed using GraphPad Prism version 9.2.0 for MacOS (GraphPad Software, San Diego, California USA, www.graphpad.com). The saturation curves were fitted to the quadratic equation, and the displacement curves were fitted to a sigmoidal dose-response equation as described previously.

USP20 DUSP2 domain [3] = molecular target: T4, USP20 DUSP2 domain (Homo sapiens, UniProt Q9Y2K6); assay: Peptide SPOT array, USP20 DUSP2; format: binding; details: for Average: peptide SPOT array intensity minus background, mean of 2 replicas; for Average / Normalize to peptide with higher intensity %: sheet S5A; for Normalize to higher intensity (%) / Normalize to peptide with higher intensity %: peptide SPOT array; for Normalize to higher intensity (%): USP20 DUSP2, average normalised to the highest intensity (ARNTL2 = 100); for Normalize to peptide with higher intensity %: average normalized to the peptide with highest intensity (ARNTL2 = 100);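 on all read-outs here: GST-tagged domain probed overnight at 4 °C on peptides made on cellulose membranes, bound protein detected via HRP-coupled anti-GST antibody, spot intensity from image analysis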
T4 construct: USP20_DUSP2; Q9Y2K6; DUSP2; 776; 894; 6xHis-GST (N, cleaved yes); made in house; host or cells: Escherichia coli BL21-Gold (DE3)
Description: as §4

USP20 DUSP2 domain [4] = molecular target: T4, USP20 DUSP2 domain; assay: FP-monitored affinity measurements, USP20 DUSP2; format: binding
Description: as §1, §2

FLAG-USP33 = assay: IP-MS of FLAG-USP33 and variants vs empty vector; format: cell-based, human; details: IP-MS
Description: For transfection, 1x10^6 HEK293 cells were seeded in 10 cm dishes with DMEM, 10% FBS, 1% L-G (without antibiotic) medium, incubated at 37 °C, with 5 % CO2 for 24 h. Cells were transfected with a transfection mix containing […] of Opti-MEM (Thermo Fisher Scientific), 20 μL of PEI stock (1 mg/mL) and […] of the desired cDNA. For co-transfection, 2.5 μg of DNA of each plasmid was used. The mix was vortexed for 15 s and incubated at room temperature for 15–20 min. The transfection mix was added to the dish and gently mixed. Plates were incubated at 37 °C for 36–48 h before harvesting. For USP33 constructs, 5 μM Bortezomib (proteasome inhibitor) was added 4 hours before harvesting the cells.
FLAG fusion proteins were immunoprecipitated from HEK293 cells transfected with plasmids encoding the protein of interest using the anti-FLAG M2 affinity gel from Sigma-Aldrich. Cell pellets were lysed with 100–200 μL/per dish lysis buffer (Pierce RIPA buffer, 1X protease inhibitor (Roche), 50 unit/μL of Benzonase Nuclease) rotating at 4 °C for 30–45 min. […] The cell lysate was clarified by centrifugation at 17,000 x g, at 4 °C for 12 min, and the supernatant was transferred to a clean, pre-chilled low-binding Eppendorf tube. […] The IP samples were centrifuged at 6500 x g at 4 °C for 30 s. The supernatant containing the unbound proteins was transferred to a clean tube. The resin was washed three times with 500 μL of TBS, centrifuged at 6500 x g at 4 °C for 30 s. The bound FLAG fusion protein was eluted with 100 μL of 150 ng/μL 3X FLAG peptide (Sigma) in TBS and incubated in the cold room for 1 h or overnight. The tube was centrifuged at 6500 x g at 4 °C for 30 s; the eluted proteins were transferred to a clean tube. The eluted proteins were prepared for analysis by western blot or Mass Spectrometry.
Immunoprecipitation (IP) was carried out as described above; four technical replicates of each IP condition were performed, and the empty vector was used as a negative control. The eluted protein was processed following the Strap-micro protocol (Protifi). The IP elution containing 1–100 μg protein was 1:1 mixed with 2X lysis buffer (10% SDS, 100 mM TEAB pH 8.5). […] Samples were vortexed, mixed with 165 μL of 100 mM TEAB in 90% methanol, and passed through an S-Trap micro column at 4000 g for 30 s to trap the proteins. The column was washed with 150 μL of 100 mM TEAB in 90% methanol (at 4,000 x g for 30 seconds) three times. The S-Trap column was centrifuged again and transferred to a clean 2 mL tube for digestion with 20 μL of digestion buffer (1 μg trypsin per 10 μg sample in 50 mM TEAB), at 37 °C overnight in a thermomixer without shaking. The digested peptides were eluted with […] of 50 mM TEAB in water, […] of 0.2 % formic acid in water, and […] of 50 % acetonitrile in water, centrifuging at 4000 x g for 1 min each time. The three elutions were pooled in a low-binding tube, placed on dry ice until frozen, dried in a SpeedVac vacuum (Thermo Scientific), and proceeded with the LCMS analysis.
Eluted peptides were resuspended in water supplemented with 0.015% dodecyl maltoside and 0.1% formic acid and were injected on a Vanquish Neo UHPLC System operating in trap and elute mode coupled to an Orbitrap Astral Mass Spectrometer (Thermo Fisher Scientific). […] Eluted peptides were analyzed using data-independent acquisition mode on the mass spectrometer.
Peptides were searched against the Uniprot Swissprot Human database (released on 02/01/2023) supplemented with the USP20 and USP33 mutants using DiaNN (v1.9.0)[62] operating in library-free mode. Data filtering and statistical analysis were carried out in Python (v3.9.0) using the packages pandas, numpy, sklearn, scipy, rpy2, Plotnine, and Plotly and R (v4.4.3) using the package limma.
Protein groups identified with a single peptide or quantified in fewer than three replicates in at least 1 condition were filtered out. […]

[5] = USP33_DUSP2, FP displacement by unlabelled peptide, read-out: KD
[6] = USP20_DUSP2, FP displacement by unlabelled peptide, read-out: KD
[7] = FLAG-USP33-ΔDUSP2 vs EV, comparison bh_2 Sample_Limma_ImpMedInt_USP33_DUSP2_domain/EV
[8] = FLAG-USP33-ΔUBP vs EV, comparison bh_2 Sample_Limma_ImpMedInt_USP33_UBP_domain/EV

T4 sequence (Q9Y2K6 with tags, fused parts or gaps): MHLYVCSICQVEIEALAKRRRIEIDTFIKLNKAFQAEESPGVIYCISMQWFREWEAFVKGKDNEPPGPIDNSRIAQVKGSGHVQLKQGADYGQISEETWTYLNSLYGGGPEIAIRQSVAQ
T1 sequence (Q9Y2K6 4-99): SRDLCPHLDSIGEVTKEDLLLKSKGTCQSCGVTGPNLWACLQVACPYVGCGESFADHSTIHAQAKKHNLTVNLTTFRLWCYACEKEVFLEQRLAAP

| Normalize to higher intensity (%) (USP33 DUSP2 domain [1]) | Kd (USP33 DUSP2 domain [2]; [5]) [µM] | Average (USP20 DUSP2 domain [3]) | Normalize to higher intensity (%) (USP20 DUSP2 domain [3]) | Normalize to peptide with higher intensity % (USP20 DUSP2 domain [3]) [%] | Kd (USP20 DUSP2 domain [4]; [6]) [µM] | Substance | further results |
| --- | --- | --- | --- | --- | --- | --- | --- |
| – | – | – | – | – | – | EKVKRRLDLDID [CCP110_582-593] | Kd (USP20 zf-UBP domain; read-out: KD, USP20 zf-UBP): > 500 µM; Kd (USP33 zf-UBP domain): > 250 µM |
| 69.9644 | 1.5 | 35.4167 | 19.83 | 19.8322 | 18.7 | IPMDDDFQLRSFDQLS [HIF1A] | – |
| – | – | – | – | – | – | NBAS | log2_FC (FLAG-USP33; [7]): 2.843; log2_FC (FLAG-USP33; [8]): 2.886; log2_FC (FLAG-USP33; FLAG-USP33 UBP mutant vs EV, comparison USP33_E86K_D90R/EV, Limma): 2.804 |
| 51.523 | 0.75 | -6.828 | -3.824 | -3.824 | 44.7 | PDVVDDFQLQHRHGPG [MFSD2B] | – |
| – | – | – | – | – | – | PYIPMDGEDFQLSPICPE [HIF2A531-548] | Kd (USP33 DUSP2 domain [2]; competitive FP: unlabeled peptide (N-acetylated, C-amidated) against protein with 10 nM FITC-labeled peptide, 50 mM phosphate pH 7.4, room temperature, technical triplicate, read-out: KD, USP33 DUSP2): > 1000 µM; Kd (USP20 DUSP2 domain [4]; competitive FP: unlabeled peptide (N-acetylated, C-amidated) against protein with 10 nM FITC-labeled peptide, 50 mM phosphate pH 7.4, room temperature, technical triplicate, read-out: KD, USP20 DUSP2): > 200 µM |
| 100 | 40.1 | 62.4217 | 34.95 | 34.9541 | 22.4 | QLEEELFQLRQGPAGL [CCDC88B] | – |
| – | – | – | – | – | – | VWA8 | log2_FC (FLAG-USP33; [7]): 2.1493; log2_FC (FLAG-USP33; [8]): 2.322 |
| – | – | – | – | – | – | YAQSKTQLEVRPV [ROBO1] | Kd (USP20 zf-UBP domain; USP20_UBP, FP displacement by unlabelled peptide, read-out: KD): ~81.6 µM |
